Laboratory results taken from ChEMBL document CHEMBL2074027, “Polyaromatic alkaloids from marine invertebrates as cytotoxic compounds and inhibitors of multidrug resistance caused by P-glycoprotein” (Br J Cancer, 1996).

Molecular target: ATP-dependent translocase ABCB1 (Homo sapiens, UniProt P08183)
Assay: TP_TRANSPORTER: inhibition of Rhodamine 123 efflux (R123: 20 uM, Lamellarin I: 10 uM) in Lo Vo/Dx cells
Type: functional, cell-based

Sequence of ATP-dependent translocase ABCB1 (P08183 whole entry): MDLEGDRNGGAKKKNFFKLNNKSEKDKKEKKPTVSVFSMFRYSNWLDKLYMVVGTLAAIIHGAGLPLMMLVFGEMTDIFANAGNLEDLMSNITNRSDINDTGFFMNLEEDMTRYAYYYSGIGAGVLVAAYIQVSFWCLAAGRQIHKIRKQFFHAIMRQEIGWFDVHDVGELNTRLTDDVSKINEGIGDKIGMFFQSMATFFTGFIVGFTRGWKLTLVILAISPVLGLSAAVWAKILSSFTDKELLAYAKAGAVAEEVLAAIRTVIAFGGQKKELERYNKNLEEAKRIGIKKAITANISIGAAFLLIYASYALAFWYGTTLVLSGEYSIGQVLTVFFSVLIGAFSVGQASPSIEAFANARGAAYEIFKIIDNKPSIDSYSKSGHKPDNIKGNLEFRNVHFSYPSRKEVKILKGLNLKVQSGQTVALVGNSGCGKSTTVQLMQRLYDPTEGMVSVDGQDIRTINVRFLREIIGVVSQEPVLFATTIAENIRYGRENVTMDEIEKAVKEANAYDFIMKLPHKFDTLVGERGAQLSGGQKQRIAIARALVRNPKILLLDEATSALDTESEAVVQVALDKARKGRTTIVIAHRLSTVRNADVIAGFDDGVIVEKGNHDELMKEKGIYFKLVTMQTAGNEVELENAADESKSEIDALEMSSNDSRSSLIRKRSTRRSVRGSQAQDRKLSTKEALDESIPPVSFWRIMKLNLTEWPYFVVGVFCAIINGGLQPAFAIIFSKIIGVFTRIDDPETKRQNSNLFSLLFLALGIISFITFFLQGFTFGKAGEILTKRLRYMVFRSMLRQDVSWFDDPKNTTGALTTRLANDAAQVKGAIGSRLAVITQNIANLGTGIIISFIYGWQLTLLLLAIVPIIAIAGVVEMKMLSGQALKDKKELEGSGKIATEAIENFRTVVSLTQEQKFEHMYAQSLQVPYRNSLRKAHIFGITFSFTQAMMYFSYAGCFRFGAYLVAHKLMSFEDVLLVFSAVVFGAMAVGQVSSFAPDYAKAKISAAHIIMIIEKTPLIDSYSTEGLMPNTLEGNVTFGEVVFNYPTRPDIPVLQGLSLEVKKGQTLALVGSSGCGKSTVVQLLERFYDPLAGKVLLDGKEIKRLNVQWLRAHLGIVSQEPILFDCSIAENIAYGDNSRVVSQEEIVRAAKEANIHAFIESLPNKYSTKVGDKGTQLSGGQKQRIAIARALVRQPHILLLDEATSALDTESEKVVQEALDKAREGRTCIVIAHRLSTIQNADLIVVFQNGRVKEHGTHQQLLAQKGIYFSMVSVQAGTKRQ

COc1cc2c(cc1O)OCc1c-2c(-c2ccc(OC)c(OC)c2)c2n1CCc1c-2cc(OC)c(OC)c1OC [LAMELLARIN I]
Activity: inhibitor [+]
